Measured values published in paper PMC8025677 (Cell, 2020).
Read-outs that look alike come from different tables or passages of the source.

How the values were obtained:
hSERT = hSERT (Homo sapiens, UniProt P31645); assay: oscillating stimulus transporter assay; format: cell-based
[1] = system: electrically evoked 5-HT release in dorsal striatum slices; design: species or system mouse
iSeroSnFR = format: binding, Thermoanaerobacter sp. X513; conditions: for Kd: read-out: apparent Kd, pH 7.4
[2] = target: iAChSnFR (early version; iAChSnFR0.6 in Figure S2A); conditions: n = 3

Sequence of hSERT (P31645 whole entry): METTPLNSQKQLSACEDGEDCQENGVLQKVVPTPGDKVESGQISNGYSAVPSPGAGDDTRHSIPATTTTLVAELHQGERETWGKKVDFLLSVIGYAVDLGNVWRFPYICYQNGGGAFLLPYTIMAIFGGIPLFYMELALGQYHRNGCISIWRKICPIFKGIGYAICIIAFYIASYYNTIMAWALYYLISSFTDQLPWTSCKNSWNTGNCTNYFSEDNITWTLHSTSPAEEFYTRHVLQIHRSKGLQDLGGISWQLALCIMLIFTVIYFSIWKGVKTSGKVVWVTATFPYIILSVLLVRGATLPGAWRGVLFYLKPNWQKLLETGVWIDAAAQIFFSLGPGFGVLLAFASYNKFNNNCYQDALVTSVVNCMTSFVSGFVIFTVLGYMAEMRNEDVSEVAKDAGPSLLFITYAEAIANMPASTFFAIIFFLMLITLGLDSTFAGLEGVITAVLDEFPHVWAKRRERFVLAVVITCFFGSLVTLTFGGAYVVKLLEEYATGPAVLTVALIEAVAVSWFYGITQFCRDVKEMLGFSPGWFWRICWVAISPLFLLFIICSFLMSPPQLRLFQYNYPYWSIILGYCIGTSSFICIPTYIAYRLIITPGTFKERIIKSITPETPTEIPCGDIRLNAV

SMILES: CCCCCCCCCCCCCC(=O)O[C@@H]1[C@@H](C)[C@@]2(O)[C@@H](C=C(CO)C[C@]3(O)C(=O)C(C)=C[C@@H]23)[C@@H]2C(C)(C)[C@]12OC(C)=O [PMA, phorbol 12-myristate 13-acetate]
- effect on 5-HT transport rate (hSERT; 400 nM): slow decrement in transport rate over ~40 minutes

SMILES: NC1=N[C@H](O)[C@H]2[C@H]3O[C@]4(O)O[C@@H]([C@@H](O)[C@@]2(N1)[C@@H]4O)[C@]3(O)CO [tetrodotoxin]
- effect on electrically evoked fluorescence transients [1]: completely abolished

SMILES: COC(=O)[C@H]1[C@@H](OC(=O)c2ccccc2)C[C@@H]2CC[C@H]1N2C [cocaine]
- effect on 5-HT transport (hSERT): reduced

SMILES: NCCc1ccc(O)c(O)c1 [dopamine]
- Kd (iSeroSnFR): 5.6 mM

SMILES: N#Cc1ccc2[nH]cc(CCCCN3CCN(c4ccc5oc(C(N)=O)cc5c4)CC3)c2c1 [vilazodone]
- effect on 5-HT transport (hSERT; concentration not given): caused transport function to rapidly disappear
- recovery of transport after washout (hSERT; washouts of >20 minutes): did not return to baseline

SMILES: CNC(C)Cc1ccc2c(c1)OCO2 (stereo not shown) [MDMA, 3,4-methyl enedioxy methamphetamine]
- enhancement in 5-HT efflux (hSERT): 2 fold

SMILES: NCCc1c[nH]c2ccccc12 [tryptamine]
- times weaker affinity than 5-HT (iSeroSnFR; purified iSeroSnFR): 8 times
- Kd (iSeroSnFR; purified iSeroSnFR 100 nM): 2.4 mM

SMILES: NCCc1c[nH]c2ccc(O)cc12 [5-HT, serotonin (5-hydroxytryptamine)]
- Kd [2]: > 1 mM
